Assay results taken from patent US11505547B2, “Compounds” (STEP PHARMA S.A.S., priority 2017, dated 2022).

Target: T1, human CTPS1 (Homo sapiens, UniProt P17812)
T1 construct: purchased Proteros biostructures GmbH
T1 sequence (P17812 1-591): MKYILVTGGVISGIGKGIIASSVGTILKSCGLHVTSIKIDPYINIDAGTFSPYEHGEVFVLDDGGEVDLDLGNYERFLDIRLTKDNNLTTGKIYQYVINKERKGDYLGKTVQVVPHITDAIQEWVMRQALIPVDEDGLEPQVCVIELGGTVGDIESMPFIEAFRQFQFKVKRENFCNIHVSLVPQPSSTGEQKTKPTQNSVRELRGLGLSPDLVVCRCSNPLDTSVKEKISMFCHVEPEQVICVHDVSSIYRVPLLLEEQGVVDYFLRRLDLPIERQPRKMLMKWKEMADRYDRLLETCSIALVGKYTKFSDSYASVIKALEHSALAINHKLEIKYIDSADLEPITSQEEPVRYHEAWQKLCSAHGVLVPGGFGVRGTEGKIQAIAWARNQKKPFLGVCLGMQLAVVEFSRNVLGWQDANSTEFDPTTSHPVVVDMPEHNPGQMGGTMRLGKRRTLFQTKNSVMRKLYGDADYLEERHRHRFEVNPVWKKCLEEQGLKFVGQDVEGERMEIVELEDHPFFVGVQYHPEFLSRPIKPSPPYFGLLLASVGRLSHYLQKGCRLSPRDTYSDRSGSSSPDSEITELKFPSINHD
Experiment: Human CTPS1 enzyme inhibition, ADP-Glo Max assay
Format: biochemical
Settings: human full length CTPS1, read-out: CTPS1 (Human CTPS1 Enzyme Inhibition data grouped by potency range, IC50)
Description: Biological Example 1—Human CTPS1 Enzyme Inhibition
The enzyme inhibitory activities of compounds invented against the target of interest were determined using the ADP-Glo™ Max assay (Promega, UK). Assays for human CTPS1 were performed in 1× assay buffer containing 50 mM Tris, 10 mM MgCl2, 0.01% Tween-20, pH to 8.0 accordingly. Finally, immediately before use, L-cysteine was added to the 1× assay buffer to a final concentration of 2 mM. All reagents are from Sigma-Aldrich unless specified otherwise. Human full length active C-terminal FLAG-Hiss-tag CTPS1 (UniProtKB-P17812, CTPS[1-591]-[…]) was obtained from Proteros biostructures GmbH.
3× human CTPS1 protein was prepared in 1× assay buffer to the final working protein concentration required for the reaction. A 2 uL volume per well of 3× human CTPS1 protein was mixed with 2 uL per well of 3× test compound (compound prepared in 1× assay buffer to an appropriate final 3× compound concentration respective to the concentration response curve designed for the compounds under test) for 10 minutes at 25° C. The enzymatic reaction was then initiated by addition of a 2 uL per well volume of a pre-mixed substrate mix (UltraPure ATP from ADP-Glo™ Max kit (0.31 mM), GTP (0.034 mM), UTP (0.48 mM) and L-glutamine (0.186 mM)) and the mixture was incubated for an appropriate amount of time within the determined linear phase of the reaction at 25° C. under sealed plate conditions with constant agitation at 500 revolutions per minute (rpm). ADP-GIo™ Max reagent was added for 60 minutes (6 uL per well) and subsequently ADP-Glo™ Max development reagent was added for 60 minutes (12 uL per well) prior to signal detection in a microplate reader (EnVision® Multilabel Reader, Perkin Elmer). Following each reagent addition over the course of the assay, assay plates were pulse centrifuged for 30 seconds at 500 rpm.
In all cases, the enzyme converts ATP to ADP and the ADP-Glo™ Max reagent subsequently depletes any remaining endogenous ATP in the reaction system. The ADP-Glo™ Max detection reagent converts the ADP that has been enzymatically produced back into ATP and using ATP as a substrate together with luciferin for the enzyme luciferase, light is generated which produces a detectable luminescence. […] The percentage inhibition produced by each concentration of compound was calculated using the equation shown below: […]
Percentage inhibition was then plotted against compound concentration, and the 50% inhibitory concentration (IC50) was determined from the resultant concentration-response curve.

IC50, 1 to 10 µM:
O=C(NCc1csc(NS(=O)(=O)C2CC2)n1)c1ccc(-c2ccccc2)cn1 [Example R8, N-((2-(cyclopropanesulfonamido)thiazol-4-yl)methyl)-5-phenylpicolinamide]
O=C(NCc1csc(NS(=O)(=O)C2CC2)n1)c1ccc(-c2ccccc2)cc1 [Example R9, N-((2-(cyclopropanesulfonamido)thiazol-4-yl)methyl)-[1,1′-biphenyl]-4-carboxamide]

IC50, 10 to 21 µM:
CC(C)(NC(=O)c1ccc(-c2ccccn2)nc1)c1csc(NS(=O)(=O)C2CC2)n1 [Example R27, N-(2-(2-(cyclopropanesuIfonamido)thiazol-4-yl)propan-2-yl)-[2,2′-bipyridine]-5-carboxamide]

IC50, 0.1 to 1 µM:
CCOc1cncc(-c2ccc(C(=O)NC(CC)c3csc(NS(=O)(=O)C4CC4)n3)c(F)c2)n1 (single isomer, unassigned) [Example R70, N-(1-(2-(cyclopropanesulfonamido)thiazol-4-yl)propyl)-4-(6-ethoxypyrazin-2-yl)-2-fluorobenzamide]
O=C(NCc1csc(NS(=O)(=O)C2CC2)n1)c1ccc(-c2cccnc2)cc1 [Example R1, N-((2-(cyclopropanesulfonamido)thiazol-4-yl)methyl)-4-(pyridin-3-yl)benzamide]
CCOc1cncc(-c2ccc(C(=O)NC(C)(C)c3csc(NS(=O)(=O)C4CC4)n3)c(OC)c2)n1 [Example R7, N-(2-(2-(cyclopropanesulfonamido)thiazol-4-yl)propan-2-yl)-4-(6-ethoxypyrazin-2-yl)-2-methoxybenzamide]
CCC(CC)(NC(=O)c1ccc(-c2cncc(F)c2)cc1)c1csc(NS(=O)(=O)C2CC2)n1 [Example R16, N-(3-(2-(cyclopropanesulfonamido)thiazol-4-yl)pentan-3-yl)-4-(5-fluoropyridin-3-yl)benzamide]
CCC(CC)(NC(=O)c1ccc(-c2cncc(C)c2)cc1)c1csc(NS(=O)(=O)C2CC2)n1 [Example R17, N-(3-(2-(cyclopropanesulfonamido)thiazol-4-yl)pentan-3-yl)-4-(5-methylpyridin-3-yl)benzamide]
CCC(CC)(NC(=O)c1ccc(-c2cccnc2)cc1)c1csc(NS(=O)(=O)C2CC2)n1 [Example R18, N-(3-(2-(cyclopropanesulfonamido)thiazol-4-yl)pentan-3-yl)-4-(pyridin-3-yl)benzamide]
CCC(CC)(NC(=O)c1ccc(-c2cnccn2)cc1)c1csc(NS(=O)(=O)C2CC2)n1 [Example R22, N-(3-(2-(cyclopropanesulfonamido)thiazol-4-yl)pentan-3-yl)-4-(pyrazin-2-yl)benzamide]
CCOc1cncc(-c2cnc(C(=O)NC(C)(C)c3csc(NS(=O)(=O)C4CC4)n3)c(F)c2)n1 [Example R23, N-(2-(2-(cyclopropanesuIfonamido)thiazol-4-yl)propan-2-yl)-5-(6-ethoxypyrazin-2-yl)-3-fluoropicolinamide]
CC(C)(NC(=O)c1ccc(-c2cncc(C(F)(F)F)n2)cn1)c1csc(NS(=O)(=O)C2CC2)n1 [Example R24, N-(2-(2-(cyclopropanesulfonamido)thiazol-4-yl)propan-2-yl)-5-(6-(trifluoromethyl)pyrazin-2-yl)picolinamide]
CC(C)(NC(=O)c1ccc(-c2cncc(Cl)n2)cn1)c1csc(NS(=O)(=O)C2CC2)n1 [Example R25, 5-(6-chloropyrazin-2-yl)-N-(2-(2-(cyclopropanesulfonamido)thiazol-4-yl)propan-2-yl)picolinamide]
CCOc1cncc(-c2ccc(C(=O)NC(C)(C)c3csc(NS(=O)(=O)C4CC4)n3)nc2)n1 [Example R26, N-(2-(2-(cyclopropanesulfonamido)thiazol-4-yl)propan-2-yl)-5-(6-ethoxypyrazin-2-yl)picolinamide]
CC(C)(NC(=O)c1ccc(-c2cncc(Cl)c2)cc1F)c1csc(NS(=O)(=O)C2CC2)n1 [Example R30]
CC(C)(NC(=O)c1ccc(-c2cncc(F)c2)cc1F)c1csc(NS(=O)(=O)C2CC2)n1 [Example R31]

IC50, < 0.1 µM:
CCC(NC(=O)c1ccc(-c2cncc(F)c2)cc1)c1csc(NS(=O)(=O)C2CC2)n1 (single isomer, unassigned) [Example R69, N-(1-(2-(cyclopropanesulfonamido)thiazol-4-yl)propyl)-4-(5-fluoropyridin-3-yl)benzamide]
CCC(NC(=O)c1ccc(-c2cncc(C(F)(F)F)n2)cc1)c1csc(NS(=O)(=O)C2CC2)n1 (centres unmarked) [Example R5, N-(1-(2-(cyclopropanesulfonamido)thiazol-4-yl)propyl)-4-(6-(trifluoromethyl)pyrazin-2-yl)benzamide]
O=C(NCc1csc(NS(=O)(=O)C2CC2)n1)c1ccc(-c2cncc(C(F)(F)F)n2)cc1F [Example R10, N-((2-(cyclopropanesulfonamido)thiazol-4-yl)methyl)-2-fluoro-4-(6-(trifluoromethyl)pyrazin-2-yl)benzamide]
CCOc1cncc(-c2ccc(C(=O)NCc3csc(NS(=O)(=O)C4CC4)n3)c(F)c2)n1 [Example R11, N-((2-(cyclopropanesuIfonamido)thiazol-4-yl)methyl)-4-(6-ethoxypyrazin-2-yl)-2-fluorobenzamide]
O=C(NCc1csc(NS(=O)(=O)C2CC2)n1)c1ccc(-c2cncc(C(F)(F)F)n2)cc1 [Example R12, N-((2-(cyclopropanesulfonamido)thiazol-4-yl)methyl)-4-(6-(trifluoromethyl)pyrazin-2-yl)benzamide]
CC(C)Oc1cncc(-c2ccc(C(=O)NCc3csc(NS(=O)(=O)C4CC4)n3)cc2)n1 [Example R13, N-((2-(cyclopropanesulfonamido)thiazol-4-yl)methyl)-4-(6-isopropoxypyrazin-2-yl)benzamide]
CCOc1cncc(-c2ccc(C(=O)NCc3csc(NS(=O)(=O)C4CC4)n3)cc2)n1 [Example R14, N-((2-(cyclopropanesulfonamido)thiazol-4-yl)methyl)-4-(6-ethoxypyrazin-2-yl)benzamide]
CCC(CC)(NC(=O)c1ccc(-c2cncc(C(F)(F)F)c2)cc1)c1csc(NS(=O)(=O)C2CC2)n1 [Example R15, N-(3-(2-(cyclopropanesulfonamido)thiazol-4-yl)pentan-3-yl)-4-(5-(trifluoromethyl)pyridin-3-yl)benzamide]
CCC(CC)(NC(=O)c1ccc(-c2cncc(C(F)(F)F)n2)cc1)c1csc(NS(=O)(=O)C2CC2)n1 [Example R19, N-(3-(2-(cyclopropanesulfonamido)thiazol-4-yl)pentan-3-yl)-4-(6-(trifluoromethyl)pyrazin-2-yl)benzamide]
CCC(CC)(NC(=O)c1ccc(-c2cncc(Cl)n2)cc1)c1csc(NS(=O)(=O)C2CC2)n1 [Example R20, 4-(6-chloropyrazin-2-yl)-N-(3-(2-(cyclopropanesulfonamido)thiazol-4-yl)pentan-3-yl)benzamide]
CCC(CC)(NC(=O)c1ccc(-c2cncc(C)n2)cc1)c1csc(NS(=O)(=O)C2CC2)n1 [Example R21, N-(3-(2-(cyclopropanesulfonamido)thiazol-4-yl)pentan-3-yl)-4-(6-methylpyrazin-2-yl)benzamide]
CC(C)(NC(=O)c1ccc(-c2cncc(Cl)c2)cc1)c1csc(NS(=O)(=O)C2CC2)n1 [Example R28]
CC(C)(NC(=O)c1ccc(-c2cncc(C(F)(F)F)c2)cc1F)c1csc(NS(=O)(=O)C2CC2)n1 [Example R29]
